Literature values in patent publication US20230028307A1, “TREATMENT OF NEUROLOGICAL DISORDERS WITH AVERMECTINS” (Equilibre BioPharmaceuticals BV, priority 2020, published 2023).

Key:
[1] = humans, relatively large doses
[2] = test system: episodes of epileptic attack; conditions: patients suffering from onchoceriasis treated with ivermectin

Substance: ivermectin
- side effects [1]: no significant side effects
- episodes of epileptic attack [2]: reduced
